Measured values reported in ChEMBL document CHEMBL1201862, “PubChem BioAssay data set” (2004).
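A five-concentration, 48-hour dose response in 96-well plates underlies each endpoint, interpolated linearly between surrounding concentrations. GI50 marks 50% less growth.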 Calls of active or inactive are those of the source. Rule as the data show it: active = GI50 up to about 1.1 µM and inactive = higher. Non-standard residues stand in square brackets, D forms with d. Residues, ends and D or L forms follow the SMILES beside them. ξ: configuration not given here. *: point of attachment. ξF = NC(Cc1ccccc1)C(=O)O; Cbz = O=C(OCc1ccccc1)*; Aib = CC(C)(N)C(=O)O

Columns and labels:
Assay in all cases: inhibition of tumour cell growth, NCI panel, 48 h
RPMI-8226 = tested on: RPMI-8226
A498 = tested on: A498
U-251 = tested on: U-251
HOP-92 = tested on: HOP-92
HCT-15 = tested on: HCT-15
SK-MEL-5 = tested on: SK-MEL-5
NCI-H522 = tested on: NCI-H522
HOP-62 = tested on: HOP-62
HCC 2998 = tested on: HCC 2998
SW-620 = tested on: SW-620
UACC-62 = tested on: UACC-62
HCT-116 = tested on: HCT-116
T47D = tested on: T47D
IGROV-1 = tested on: IGROV-1
SF-295 = tested on: SF-295
HT-29 = tested on: HT-29
MOLT-4 = tested on: MOLT-4
UO-31 = tested on: UO-31
MDA-MB-435 = tested on: MDA-MB-435
TK-10 = tested on: TK-10
COLO 205 = tested on: COLO 205
CCRF-CEM = tested on: CCRF-CEM
SF-268 = tested on: SF-268
LOX IMVI = tested on: LOX IMVI
MCF7 = tested on: MCF7
ACHN = tested on: ACHN
NCI/ADR-RES = tested on: NCI/ADR-RES
UACC-257 = tested on: UACC-257
DU-145 = tested on: DU-145
EKVX = tested on: EKVX
OVCAR-5 = tested on: OVCAR-5
A549 = tested on: A549
MDA-N = tested on: MDA-N
SNB-19 = tested on: SNB-19
K562 = tested on: K562
Malme-3M = tested on: Malme-3M
OVCAR-4 = tested on: OVCAR-4
HL-60 = tested on: HL-60
OVCAR-8 = tested on: OVCAR-8
PC-3 = tested on: PC-3
M14 = tested on: M14
SR = tested on: SR
CAKI-1 = tested on: CAKI-1
OVCAR-3 = tested on: OVCAR-3
SK-MEL-28 = tested on: SK-MEL-28
MDA-MB-231 = tested on: MDA-MB-231
NCI-H460 = tested on: NCI-H460

O=C(c1ccc(Cl)c(Cl)c1)N1CCN(C(=O)c2ccc(Cl)c(Cl)c2)C1=S
GI50 (RPMI-8226): 1.83 µM (inactive)

CCOC(=O)CNC(=O)C(Cc1ccccc1)NC(=O)C(C)(C)NC(=O)OCc1ccccc1 (stereo not drawn) (Cbz-[Aib]-[ξF]-Gly-OEt)
GI50 (A498): > 100 µM (inactive) | GI50 (U-251): > 100 µM (inactive) | GI50 (HOP-92): > 100 µM (inactive) | GI50 (HCT-15): > 100 µM | GI50 (SK-MEL-5): 64.1 µM (inactive) | GI50 (NCI-H522): 29.8 µM (inactive) | GI50 (HOP-62): > 100 µM (inactive) | GI50 (HCC 2998): 43.5 µM (inactive) | GI50 (SW-620): > 100 µM (inactive) | GI50 (UACC-62): 19.6 µM (inactive) | GI50 (RPMI-8226): 32.6 µM (inactive) | GI50 (HCT-116): > 100 µM (inactive) | GI50 (T47D): 77.8 µM (inactive) | GI50 (IGROV-1): > 100 µM (inactive) | GI50 (SF-295): > 100 µM (inactive) | GI50 (HT-29): > 100 µM (inactive) | GI50 (MOLT-4): 29.4 µM (inactive) | GI50 (UO-31): > 100 µM (inactive) | GI50 (MDA-MB-435): 67.3 µM (inactive) | GI50 (TK-10): > 100 µM (inactive) | GI50 (COLO 205): 93.1 µM (inactive) | GI50 (CCRF-CEM): > 100 µM (inactive) | GI50 (SF-268): > 100 µM (inactive) | GI50 (LOX IMVI): 49.4 µM (inactive) | GI50 (MCF7): > 100 µM (inactive) | GI50 (ACHN): > 100 µM (inactive) | GI50 (NCI/ADR-RES): > 100 µM (inactive) | GI50 (UACC-257): 33.1 µM (inactive) | GI50 (DU-145): 28.6 µM (inactive) | GI50 (EKVX): > 100 µM (inactive) | GI50 (OVCAR-5): > 100 µM (inactive) | GI50 (A549): > 100 µM (inactive) | GI50 (MDA-N): > 100 µM (inactive) | GI50 (SNB-19): > 100 µM (inactive) | GI50 (K562): 33.1 µM (inactive) | GI50 (Malme-3M): 18.6 µM (inactive) | GI50 (OVCAR-4): > 100 µM (inactive) | GI50 (HL-60): 32.9 µM (inactive) | GI50 (OVCAR-8): > 100 µM (inactive) | GI50 (PC-3): > 100 µM (inactive) | GI50 (M14): 37.7 µM (inactive) | GI50 (SR): 30.3 µM (inactive) | GI50 (CAKI-1): > 100 µM (inactive) | GI50 (OVCAR-3): 21.5 µM (inactive) | GI50 (SK-MEL-28): 17.9 µM (inactive) | GI50 (MDA-MB-231): > 100 µM (inactive) | GI50 (NCI-H460): > 10 µM (inactive)
